Laboratory results published in US20040127492A1 (Pharmacia Corporation, priority 2002, published 2004).
Read-outs that look alike come from different tables or passages of the source.

Tests used:
MAPKAPK2 (MK-2) = MAPKAPK2 (MK-2) (Homo sapiens, UniProt P49137); assay: Determination of MK-2 IC50 (HSP-peptide phosphorylation, anion exchange resin capture assay); type: biochemical
Procedure, shortened: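 MAPKAPK2, preactivated by p38α with 0.25 mM ATP for 1 h at 30° C, used at 15 nM to phosphorylate HSP-peptide with 0.03 mM ATP plus [γ33P]ATP, pH 7.5, 2% DMSO, 30 min at 30° C. Labelled peptide counted after anion-exchange resin capture; IC50 from six ten-fold dilutions, triplicate.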

MK-3 = MK-3 (Homo sapiens, UniProt Q16644); assay: MK-3 inhibition IC50 (similar method to MK-2, with appropriate modifications); type: biochemical; conditions: read-out: MK-3 Avg. IC50
[1] = Table 1, phenoxypyrazole MK-2 inhibitors, read-out: MK-2 Avg, IC50
[2] = Table 1, phenoxypyrazole MK-2 inhibitors
[3] = Table 2, pyrazolylpyrazole MK-2 inhibitors, read-out: MK-2 Avg. IC50
[4] = Table 2, pyrazolylpyrazole MK-2 inhibitors

Sequence of MAPKAPK2 (MK-2) (P49137 whole entry, species assumed): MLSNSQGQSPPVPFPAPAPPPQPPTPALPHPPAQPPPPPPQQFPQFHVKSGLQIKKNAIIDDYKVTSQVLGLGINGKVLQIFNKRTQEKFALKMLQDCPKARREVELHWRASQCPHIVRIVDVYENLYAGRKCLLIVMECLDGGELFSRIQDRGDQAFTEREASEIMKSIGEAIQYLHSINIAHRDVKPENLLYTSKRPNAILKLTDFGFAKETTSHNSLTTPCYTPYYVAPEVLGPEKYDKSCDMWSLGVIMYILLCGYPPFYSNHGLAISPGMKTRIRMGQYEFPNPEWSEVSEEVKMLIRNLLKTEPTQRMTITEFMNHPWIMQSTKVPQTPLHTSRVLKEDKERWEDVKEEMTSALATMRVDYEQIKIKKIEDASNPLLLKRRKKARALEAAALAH
Sequence of MK-3 (Q16644 whole entry, species assumed): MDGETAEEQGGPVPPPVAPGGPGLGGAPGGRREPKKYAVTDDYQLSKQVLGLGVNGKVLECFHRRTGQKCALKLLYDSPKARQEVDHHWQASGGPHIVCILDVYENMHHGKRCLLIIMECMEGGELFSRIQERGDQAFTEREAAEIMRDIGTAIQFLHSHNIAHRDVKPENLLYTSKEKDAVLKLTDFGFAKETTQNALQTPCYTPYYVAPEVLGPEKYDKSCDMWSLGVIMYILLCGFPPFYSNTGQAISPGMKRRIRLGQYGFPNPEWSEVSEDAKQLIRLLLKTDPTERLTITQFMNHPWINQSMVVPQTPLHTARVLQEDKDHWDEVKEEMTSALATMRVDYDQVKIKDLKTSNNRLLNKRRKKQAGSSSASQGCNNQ

Compound	IC50 (MAPKAPK2 (MK-2); [1])	IC50 (MK-3; [2])	further results
CC1Cc2cc(O)ccc2-c2n[nH]c(C(N)=O)c21 (stereo not shown) [Example 68]	173 µM	196 µM	
NC(=O)c1[nH]nc2c1CCc1c-2cnn1COCc1ccccc1 [Example 68]			IC50 (MAPKAPK2 (MK-2); [3]): ≥ 200 µM; IC50 (MK-3; [4]): ≥ 200 µM
NCCn1nc2c(c1C(=O)O)CCc1cnccc1-2 [Example 68]			IC50 (MAPKAPK2 (MK-2); read-out: MK-2 Avg. IC50): 0.706 µM; IC50 (MK-3): 43.1 µM
CCOC(=O)c1[nH]nc2c1CCc1c-2cnn1CCO [Example 69]			IC50 (MAPKAPK2 (MK-2); [3]): ≥ 200 µM; IC50 (MK-3; [4]): ≥ 200 µM
CNC(=O)c1[nH]nc2c1CCc1cc(O)ccc1-2 [Example 69]	176 µM	> 200 µM	
O=C(O)c1c2c(nn1CCCNCCc1ccc([N+](=O)[O-])cc1)-c1ccncc1CC2 [Example 69]			IC50 (MAPKAPK2 (MK-2); read-out: MK-2 Avg. IC50): 0.765 µM; IC50 (MK-3): 11.9 µM
CCOC(=O)c1[nH]nc2c1CCc1cc(O)ccc1-2 [Example 70]	176 µM	> 200 µM	
NC(=O)c1[nH]nc2c1CCc1c-2cnn1CCO [Example 70]			IC50 (MAPKAPK2 (MK-2); [3]): ≥ 200 µM; IC50 (MK-3; [4]): ≥ 200 µM
O=C(O)c1c2c(nn1CCCNCCc1ccc(-c3ccccc3C(F)(F)F)cc1)-c1ccncc1CC2 [Example 70]			IC50 (MAPKAPK2 (MK-2); read-out: MK-2 Avg. IC50): 0.801 µM; IC50 (MK-3): 44.8 µM
Cn1nc2c(c1C(N)=O)CCc1cc(O)ccc1-2 [Example 71]	179 µM	> 200 µM	
O=C(O)c1nn(-c2ccccc2)c2c1CCc1[nH]ncc1-2 [Example 71]			IC50 (MAPKAPK2 (MK-2); [3]): ≥ 200 µM; IC50 (MK-3; [4]): ≥ 200 µM
O=C1NC(CO)Cn2nc3c(c21)CCc1cnccc1-3 (stereo not shown) [Example 71]			IC50 (MAPKAPK2 (MK-2); read-out: MK-2 Avg. IC50): 0.825 µM; IC50 (MK-3): 35 µM
CC(C)(C)OC(=O)NCCCn1nc2c(c1C(=O)O)CCc1cc(O)ccc1-2 [Example 72]	181 µM	> 200 µM	
CCOC(=O)c1c2c(nn1CC(F)(F)F)-c1cn[nH]c1CC2 [Example 72]			IC50 (MAPKAPK2 (MK-2); [3]): ≥ 200 µM; IC50 (MK-3; [4]): ≥ 200 µM
Cc1ccc(CCNCCCn2nc3c(c2C(=O)O)CCc2cnccc2-3)cc1 [Example 72]			IC50 (MAPKAPK2 (MK-2); read-out: MK-2 Avg. IC50): 0.89 µM; IC50 (MK-3): 17.2 µM
CCOC(=O)c1nn(CC(F)(F)F)c2c1CCc1c-2cnn1C(c1ccccc1)(c1ccccc1)c1ccccc1 [Example 73]			IC50 (MAPKAPK2 (MK-2); [3]): ≥ 200 µM; IC50 (MK-3; [4]): ≥ 200 µM
O=C(NCCO)c1[nH]nc2c1CCc1cc(O)ccc1-2 [Example 73]	184 µM	> 200 µM	
O=C1NC(CNCCc2cccs2)Cn2nc3c(c21)CCc1cnccc1-3 (stereo not shown) [Example 73]			IC50 (MAPKAPK2 (MK-2); read-out: MK-2 Avg. IC50): 0.924 µM; IC50 (MK-3): 27.8 µM
C=CCn1nc2c(c1C(=O)OCC)CCc1c-2cnn1C(c1ccccc1)(c1ccccc1)c1ccccc1 [Example 74]			IC50 (MAPKAPK2 (MK-2); [3]): ≥ 200 µM; IC50 (MK-3; [4]): ≥ 200 µM
CCOc1ccc(CCNCCCn2nc3c(c2C(=O)O)CCc2cnccc2-3)cc1 [Example 74]			IC50 (MAPKAPK2 (MK-2); read-out: MK-2 Avg. IC50): 0.931 µM; IC50 (MK-3): 34.8 µM

Compound	IC50 (MAPKAPK2 (MK-2); [1])	IC50 (MK-3; [2])	further results
C=CCn1nc2c(c1C(N)=O)CCc1cc(OCOCCOC)ccc1-2 [Example 80]	> 200 µM	> 200 µM	
CCOC(=O)c1nn(CC(F)(F)F)c2c1CCc1[nH]ncc1-2 [Example 80]			IC50 (MAPKAPK2 (MK-2); [3]): ≥ 200 µM; IC50 (MK-3; [4]): 124 µM
O=C(O)c1c2c(nn1CCCNCCC(c1ccccc1)c1ccccc1)-c1ccncc1CC2 [Example 80]			IC50 (MAPKAPK2 (MK-2); read-out: MK-2 Avg. IC50): 1.18 µM; IC50 (MK-3): 30.3 µM
COc1ccc(CCNCCCn2nc3c(c2C(=O)O)CCc2cnccc2-3)cc1OC [Example 100]			IC50 (MAPKAPK2 (MK-2); read-out: MK-2 Avg. IC50): 2.33 µM; IC50 (MK-3): 48.1 µM
O=C(O)CCn1nc(C(=O)O)c2c1-c1cn[nH]c1CC2 [Example 100]			IC50 (MAPKAPK2 (MK-2); [3]): ≥ 200 µM; IC50 (MK-3; [4]): ≥ 200 µM
CCOC(=O)Cn1nc2c(c1C(=O)OCC)CCc1[nH]ncc1-2 [Example 113]			IC50 (MAPKAPK2 (MK-2); [3]): ≥ 200 µM; IC50 (MK-3; [4]): ≥ 200 µM
NCCCCn1nc2c(c1C(=O)O)CCc1cnccc1-2 [Example 113]			IC50 (MAPKAPK2 (MK-2); read-out: MK-2 Avg. IC50): 3.01 µM; IC50 (MK-3): 174 µM
O=C(O)c1n[nH]c2c1CC(c1ccccc1)c1cc(O)ccc1-2 (stereo not shown) [Example 113]	> 200 µM	> 200 µM	
O=C1NCCCn2nc3c(c21)CCc1cnc(Nc2ccccc2)cc1-3 [Example 131]			IC50 (MAPKAPK2 (MK-2); read-out: MK-2 Avg. IC50): 4.68 µM; IC50 (MK-3): 25.2 µM
CCOC(=O)c1c2c(nn1C)-c1ccc(O)cc1CC2 [Example 157]	> 200 µM	> 200 µM	
O=C1NCCn2nc3c(c21)CCc1cnc(N2Cc4ccccc4C2)cc1-3 [Example 157]			IC50 (MAPKAPK2 (MK-2); read-out: MK-2 Avg. IC50): 9.58 µM; IC50 (MK-3): 45.4 µM
COc1ccc(-n2nc(C(N)=O)c3c2-c2ccc(O)cc2CC3)cc1 [Example 158]	> 200 µM	> 200 µM	
Nc1ccc(NCCCn2nc3c(c2C(=O)O)CCc2cnccc2-3)cc1 [Example 158]			IC50 (MAPKAPK2 (MK-2); read-out: MK-2 Avg. IC50): 9.73 µM; IC50 (MK-3): 133 µM
COC(=O)c1nn(-c2ccc(Cl)cc2)c2c1CCc1cc(OC)ccc1-2 [Example 159]	> 200 µM	> 200 µM	
O=C1NCCn2nc3c(c21)CCc1cnc(N2CCC(O)CC2)cc1-3 [Example 159]			IC50 (MAPKAPK2 (MK-2); read-out: MK-2 Avg. IC50): 9.84 µM; IC50 (MK-3): 22.8 µM
COc1ccc2c(c1)CCc1c(C(=O)O)nn(-c3ccc(Cl)cc3)c1-2 [Example 160]	> 200 µM	> 200 µM	
COc1ccc2c(c1)CCc1c(C(=O)NCCCN(C)C)nn(-c3ccc(Cl)cc3)c1-2 [Example 161]	> 200 µM	> 200 µM	
COc1ccc(-n2nc(C(=O)O)c3c2-c2ccc(OC)cc2CC3)cc1 [Example 162]	> 200 µM	> 200 µM	
COC(=O)c1nn(-c2ccc(OC)cc2)c2c1CCc1cc(OC)ccc1-2 [Example 163]	> 200 µM	> 200 µM	
COC(=O)c1nn(-c2ccc(S(C)(=O)=O)cc2)c2c1CCc1cc(OC)ccc1-2 [Example 164]	> 200 µM	> 200 µM	

Compound	IC50 (MAPKAPK2 (MK-2); [1])	IC50 (MK-3; [2])	further results
COc1ccc2c(c1)CCc1c(C(=O)O)nn(-c3ccc(S(C)(=O)=O)cc3)c1-2 [Example 165]	> 200 µM	> 200 µM	
COc1ccc2c(c1)CCc1c(C(=O)O)nn(-c3ccc(S(N)(=O)=O)cc3)c1-2 [Example 166]	> 200 µM	> 200 µM	
CCOC(=O)c1[nH]nc2c1CCc1cc(OC)c(OC)cc1-2 [Example 167]	> 200 µM	> 200 µM	
CCOC(=O)c1nn(-c2ccccc2)c2c1CCc1cc(OC)c(OC)cc1-2 [Example 168]	> 200 µM	> 200 µM	
COc1cc2c(cc1OC)-c1n[nH]c(C(=O)n3ccnc3)c1CC2 [Example 169]	> 200 µM	> 200 µM	
COc1cc2c(cc1OC)-c1n[nH]c(C(=O)NN)c1CC2 [Example 170]	> 200 µM	> 200 µM	
CCN(CC)CCNC(=O)c1nn(-c2ccc(Cl)cc2)c2c1CCc1cc(OC)ccc1-2 [Example 171]	> 200 µM	> 200 µM	
O=C1NCCn2nc3c(c21)CCc1cnc(-c2cccc4cccnc24)cc1-3 [Example 171]			IC50 (MAPKAPK2 (MK-2); read-out: MK-2 Avg. IC50): 14 µM; IC50 (MK-3): 74.8 µM
COC(=O)c1nn(-c2ccc(S(N)(=O)=O)cc2)c2c1CCc1cc(OC)ccc1-2 [Example 172]	> 200 µM	> 200 µM	
COc1cc2c(cc1OC)-c1n[nH]c(C(=O)O)c1CC2 [Example 173]	> 200 µM	> 200 µM	
CCOC(=O)c1nn(-c2ccc(S(N)(=O)=O)cc2)c2c1CCc1cc(OC)c(OC)cc1-2 [Example 174]	> 200 µM	> 200 µM	
COc1cc2c(cc1OC)-c1c(c(C(N)=O)nn1-c1ccc(S(N)(=O)=O)cc1)CC2 [Example 175]	> 200 µM	> 200 µM	
CCOC(=O)c1nn(-c2ccc(S(N)(=O)=O)cc2)c2c1CCc1cc(O)ccc1-2 [Example 176]	> 200 µM	> 200 µM	
COc1cc2c(cc1OC)-c1n[nH]c(C(=O)NNc3ccc(S(N)(=O)=O)cc3)c1CC2 [Example 177]	> 200 µM	> 200 µM	
CCOC(=O)c1nn(-c2ccc(S(N)(=O)=O)cc2)c2c1CCc1cc(OC)ccc1-2 [Example 178]	> 200 µM	> 200 µM	
O=C1NCC(CCCNCCc2ccc(Cl)cc2)n2nc3c(c21)CCc1cnccc1-3 (stereo not shown) [Example 178]			IC50 (MAPKAPK2 (MK-2); read-out: MK-2 Avg. IC50): 16.1 µM; IC50 (MK-3): 40.4 µM
COc1ccc2c(c1)CCc1c(C(N)=O)nn(-c3ccc(S(N)(=O)=O)cc3)c1-2 [Example 179]	> 200 µM	> 200 µM	
COc1ccc2c(c1)CCc1c-2n[nH]c1C(=O)NN [Example 180]	> 200 µM	> 200 µM	
COC(=O)c1[nH]nc2c1CCc1cc(O)ccc1-2 [Example 181]	> 200 µM	> 200 µM	
